{
  "source": "patent US20050003028A1",
  "about": "“Composition for protection and regeneration of structure and function of the liver” (priority 2001, published 2005)",
  "origin": "cited, not measured here",
  "details": "in vivo",
  "data": [
    {"substance": "Sylimarin", "values": [
      {"measurement": "re-absorbtion into digestive system", "value": "weak"}
    ]}
  ]
}
